From patent US12274703B2, “Compositions and methods of treatment for neurological disorders comprising a dementia” (Gliapharm SA, priority 2017, dated 2025)

Test system: primary astrocytes
Test: High throughput screening for lactate secretion: acidification of extracellular medium (SNARF5)
Type: cell-based, mouse
Details: Mus musculus, Astrocyte, 1.5 h; Appendix I; primary screening, 10 uM, 90 min; relative to positive control; read-out: Score
Experimental: (§1) Primary cultures of cerebrocortical astrocytes were obtained from 1-2-day-old OF1 mouse pups (Charles River Laboratories). Briefly, cortices were isolated and minced in small pieces under a dissecting microscope. The cells were incubated for 30 min at 37° C. in a solution containing 20 U/ml of papain enzyme (Worthington Biochemical), L-cysteine 1 mM (Sigma), and 10 kU/ml DNase I (Worthington Biochemical) for an enzymatic dissociation. Papain activity was stopped by the addition of fetal calf serum (FCS) to the solution, and a single-cell suspension was then obtained by mechanical dissociation, which consisted in cells trituration in a DMEM (D7777, Sigma-Aldrich) medium (supplemented with 44 mm NaHCO3, and 10 ml/L antibiotic/antimycotic solution) containing 10% FCS. The cells were seeded at an average density of 6×10^4 cells/cm^2 in poly-D-lysine-coated 96, 12 or 6-well culture plates, depending on their use, and incubated at 37° C. in a humidified atmosphere containing 5% CO2/95% air. Culture medium was renewed twice per week. Cells were stimulated and harvested between DIV14 and DIV17, when confluence and cell growth were optimal.
Secretion of lactate in a high-throughput screening (HTS) fashion was measured indirectly through the acidification of extracellular medium. To this end, primary astrocytes grown in 96-well plates for 17 days were stimulated with the compounds as listed herein.
After washing the cells twice with stimulation medium (DMEM (D5030, Sigma), 3 mM NaHCO3 and 5 mM Glucose) at 37° C., cells were stimulated with the compounds at a final concentration of 10 uM (1% DMSO final) in 50 ul per well of stimulation medium supplemented with 10 uM of the extracellular pH sensor SNARF-5F %-(AND-6)-CAR (Life Technologies Corporation). Each compound was tested in two different plates for duplicates.
After 90 min stimulation, fluorescence was read at exc. (excitation) 480 nm/emm. (emission) 580 nm and at exc 480 nm/emm. 630 nm. The ratio of fluorescence between 630 nm and 580 emission values, which represents extracellular pH, was calculated.
In each plate, 8 wells were used for negative controls (DMSO) and 8 wells were used for positive controls (CCCP 2 uM in DMSO). Z prime values were calculated for each of the plates tested and values <0 were discarded.
The average and SD of compounds' values tested in duplicates were calculated, and compound was noted as HIT when the difference between compound's average and negative control's average was greater than three times the sum of compound's SD and negative controls' SD. Only scores greater than 40% were considered as lead hits for the CDC54K library; for the remaining libraries, all hits were considered. Scores are calculated as the % of activity compared to the positive control in each plate (which is 100%).
Primary screening hits were cherry picked on new plates and confirmed for SNARF5 effect, after having discarded those compounds that are fluorescent (exc. 480 nm/emm. 580 nm or 630 nm) before stimulation. Extracellular medium was next analyzed for extracellular lactate quantification for secondary screening.
Identification of lactate-enhancing drugs with high throughput screening (HTS) experiments on astrocytes primary cultures using extracellular pH dye (SNARF5F 5-(and 6)-carboxylic acid) for 90 min. The procedure is described in Material and Methods (2. Cell culture, 2.1. HTS for lactate secretion and 2.2. Extracellular lactate quantification).
The procedure was performed as follows: • Primary screening: acidification of the extracellular medium • Primary screening confirmation: acidification of the extracellular medium, removal of compounds with fluorescent activity at exc. 480 nm/emm. 580 nm or 630 nm. • Secondary screening: dosage of extracellular lactate

Compound | Emax at 10 µM [%]
O=C(NC1CC1)c1cccc(NS(=O)(=O)c2ccc(N3CCCC3=O)cc2)c1 [T5618591] | 41.6
CC(=O)c1cccc(NC(=O)C(C)Sc2ncnc3ccsc23)c1 (centres unmarked) [T5627721] | 72.4
CC1c2ccsc2CCN1c1ncnc2sccc12 (centres unmarked) [T5630309] | 72.2
O=S(=O)(Nc1ccc2[nH]ncc2c1)c1ccc(C(F)(F)F)cc1 [T5653029] | 36.2
c1csc(C(Nc2ncnc3sccc23)C2CC2)c1 (centres unmarked) [T5713637] | 114
O=C(Cc1n[nH]c(=O)c2ccccc12)Nc1cccc(Br)c1 [T5717474] | 21.7
c1ccc(C(Nc2ncnc3sccc23)C2CC2)cc1 (centres unmarked) [T6016487] | 126
CC(=O)N1CCCc2cc(S(=O)(=O)NC(c3ccccc3)C(C)C)ccc21 (centres unmarked) [T6067366] | 0
CC(=O)N1CCCc2cc(S(=O)(=O)NCc3cccc(C(F)(F)F)c3)ccc21 [T6099519] | 27.6
Cc1ccc(F)cc1NC(=O)Cc1nn(C)c(=O)c2ccccc12 [T6302989] | 40.5
c1ccc2c(c1)CN(c1ncnc3sccc13)CCN2 [T6768300] | 34.4
CN(C)Cc1cccc(CNc2ncnc3sccc23)c1 [T6783542] | 85.7

Test system: astrocytes
Test: Extracellular lactate quantification
Type: cell-based, mouse
Details: Mus musculus, Astrocyte; Appendix II; lactate secretion; read-out: EC50
Experimental: as §1
Secretion of L-lactate was determined in the extracellular medium of 96-well plated astrocytes after 90 min stimulation (at 37° C., in 5% CO2/95% air conditions) with the drug of interest. The stimulation medium was composed of D5030 medium (completed with D-glucose 5 mM and 44 mM sodium bicarbonate) for 90 min in concentrations ranging from 0 to 100 μM.
Briefly, 200 μl of a Glycine (Sigma)-Semicarbazide (Acros) 0.2M pH 10 buffer containing 3 mM NAD (Roche) and LDH 14 U/ml (Roche) was added to each well of a 96-well plate containing 30 μl aliquots complemented with 20 μl fresh complete D5030 medium. Samples were incubated at 37° C. for 1 h. After samples cooled down at room temperature, the fluorescence intensity (340 nm excitation/450 nm emission) that represents the amount of NADH produced was measured, and lactate concentration values were determined from a standard curve of L-lactate.
Statistical analysis consisted in ANOVA followed by Fisher LSD post-hoc test for pair-wise comparisons.
Levels of lactate secreted by astrocytes were measured in the extracellular medium at 90 min after stimulation with hits (molecules) from the CDC54K library.

Compound | EC50 [µM]
CCc1cc2c(NC3CCCC3)ncnc2s1 [887-0183] | 3.94
Cc1noc2ncnc(NC(C)CCc3ccccc3)c12 (centres unmarked) [E944-0182] | 3.99
COc1ccc(S(=O)(=O)Nc2ccc(N3CCCCS3(=O)=O)cc2)cc1C [F2794-0128] | 9.85
Cc1cccc(NS(=O)(=O)c2ccc(F)c(Cl)c2)c1 [F3394-1364] | 5.87
FC(F)(F)c1cccc(CNc2ncnc3[nH]ncc23)c1 [F5285-0069] | 6.29
CCc1ccc(S(=O)(=O)Nc2cc3c(cc2C)n(C)c(=O)n3C)cc1 [G433-0293] | 4.48
COc1ccc(NS(=O)(=O)c2ccc(N3CCCCS3(=O)=O)cc2)cc1 [G508-0015] | 4.83
CCc1cccc(NS(=O)(=O)c2ccc3c(c2)CCCN3C(C)=O)c1 [G855-0143] | 4.72
CC(=O)N1CCCc2cc(S(=O)(=O)Nc3ccc(OC(F)(F)F)cc3)ccc21 [G855-0183] | 6
CCNc1cc(C)nc(Nc2ccc(NC(=O)Cc3ccccc3)cc2)n1 [G869-0064] | 4.26
CCNc1cc(C)nc(Nc2ccc(NC(=O)c3cccs3)cc2)n1 [G869-0071] | 4.9
COc1ccc(CCNc2ncnc3c2cnn3C)cc1 [K405-2595] | 3.51
CCOc1ccc(-c2csc3c(=O)n(Cc4ccncc4)cnc23)cc1OCC [L115-0403] | 3.28
CC(=O)N1CC(C)(C)c2cc(S(=O)(=O)NCc3ccc(C)cc3)ccc21 [L302-0069] | 6.27
CC(=O)N1CC(C)(C)c2cc(S(=O)(=O)Nc3ccc(F)cc3C)ccc21 [L302-0181] | 5.05
Cn1c(=O)c(N2CCC(NC(=O)Nc3cccc(Cl)c3)CC2)nc2ccccc21 [L932-0267] | 4.64
CN(C)c1ccc2ncnc(N3CCN(C(=O)c4ccc(Cl)cc4)CC3)c2c1 [M381-0730] | 3.19
CCc1ccc(NC(=O)Cc2cn(C)c3ncccc23)cc1 [M508-0370] | 4.58
CCc1ccc(NS(=O)(=O)c2c(C)c(-c3nnc(C4CC4)o3)n(C)c2C)cc1 [M950-1515] | 4.06
CCCCN1C(=O)C(C)(C(=O)Nc2ccc(OCC)cc2)Oc2cccnc21 (centres unmarked) [P621-1364] | 5.86
CCOc1ccc(C2(O)C(C)[N+]3=C(CCC3)N2c2ccc(OC)cc2)cc1 (centres unmarked) [T0500-6629] | 2.61
Cc1nc2ccccc2n1CCOc1ccc(Br)cc1 [T0505-4087] | 7.07
c1ccc(-c2c[nH]c3ncnc(NCCN4CCOCC4)c23)cc1 [T0513-0213] | 3.99
CC1(C)Cc2cccc(OCC(O)CN3CCc4ccccc4C3)c2O1 (centres unmarked) [T0515-1783] | 5.39
N#Cc1cc(C(=O)c2cc(F)ccc2O)cn(-c2ccc(F)c(Cl)c2)c1=O [T0516-6894] | 8.21
Cc1sc2nc(CSc3nc4ccccc4c(=O)n3C)[nH]c(=O)c2c1C [T0517-2783] | 3.84
COc1ccc(NS(=O)(=O)c2cccc(NC(=O)c3cccs3)c2)cc1 [T0517-4117] | 5.43

Compound | EC50 [µM]
CCN(CC)C(=O)c1nc(CNC(=O)c2ccc3ccccc3n2)oc1C [T993-1787] | 7.99
O=c1[nH]nc(OCCOc2ccc(Br)cc2)n1C1CC1 [T533260] | 6.84
COc1ccc(NS(=O)(=O)c2cccc(NC(=O)c3ccccc3)c2)cc1 [T5274959] | 4.12
O=S(=O)(Nc1ccc(S(=O)(=O)C(F)F)cc1)c1ccc(Cl)cc1 [T5311200] | 6.02
CCOc1ccc(CN(C)CC(=O)Nc2cccc(C)c2)cc1OC [T5318833] | 5.45
COc1ccc(NS(=O)(=O)c2ccc(NC(=O)C3CCCO3)cc2)cc1 (centres unmarked) [T5329723] | 4.61
CN1c2ccccc2C(=O)NC1c1ccc(Cl)c(Cl)c1 (centres unmarked) [T5389517] | 5.74
CN(C)S(=O)(=O)c1cccc(C(=O)Nc2ccc(Oc3ccccc3)cc2)c1 [T5393500] | 3.43
CCC(C)NS(=O)(=O)c1ccc(Oc2ccc(C)cc2)cc1 (centres unmarked) [T5400234] | 4.64
Cc1ccc(OCCn2c(C)nc3ccccc32)cc1 [T5444083] | 4.59
O=C(Nc1ccc(F)c(F)c1)c1ccc(Cl)c(S(=O)(=O)N2CCCC2)c1 [T5450239] | 4.42
CCN(CC)S(=O)(=O)c1ccc(S(=O)(=O)Nc2ccc(C)cc2Cl)cc1 [T5453923] | 5.36
CCN1C(=O)c2cccc3c(S(=O)(=O)Nc4ccc(OC)cc4OC)ccc1c23 [T5477696] | 5.1
Cc1c(O)ccc2c(CN(C)CC3COc4ccccc4O3)cc(=O)oc12 (centres unmarked) [T5494352] | 5.02
CCn1c(=O)c(C)nc2cc(C(=O)N(Cc3ccc(F)cc3)C3CC3)ccc21 [T5586091] | 5.36
Cc1nc2ccc(NC(=O)c3ccc4c(c3)CC(C)N4S(C)(=O)=O)cc2s1 (centres unmarked) [T5606387] | 4.61
N#Cc1ccc(S(=O)(=O)Nc2ccccc2C(=O)NCc2ccccc2)cc1 [T5673322] | 7.42
CCCC(=O)Nc1nc(-c2ccc3c(c2)CCO3)cs1 [T5691896] | 5.21
Cc1ccc(-c2csc(NC(=O)c3ccncc3)n2)cc1[N+](=O)O [T5694329] | 1.59
CC(=O)c1c(C)[nH]c(C(=O)N(C)Cc2ccc(C)cc2C)c1C [T5705522] | 2.53
CC(=O)N1CCc2cc(S(=O)(=O)NCC(C)c3ccccc3)ccc21 (centres unmarked) [T5707230] | 4.88
COc1ccc(C(C)NC(=O)c2cc(=O)c3ccccc3o2)cc1F (centres unmarked) [T5710343] | 6.31
CCc1ccccc1NC(=O)CN(C)c1ncnc2c1oc1ccccc12 [T5712071] | 1.14
Cc1sc2nc(CSc3nc4ccccc4[nH]3)nc(N)c2c1C [T5719257] | 2.85
Cc1ccc(S(=O)(=O)Nc2ccc(F)c(F)c2F)cc1[N+](=O)[O-] [T5729557] | 5.69
CCc1ccc(S(=O)(=O)Nc2c(C)nn(C)c2C)cc1 [T5753165] | 6.41
